Data on 2 compounds can be found in US10662193B2, “Carbazole and carboline compounds for use in the diagnosis, treatment, alleviation or prevention of disorders associated with amyloid or amyloid-like proteins” (AC IMMUNE SA, priority 2014, dated 2020).

Structures are written as SMILES.

This assay has as its target T1, in vitro aggregated Abeta1-42 (Homo sapiens, UniProt P05067).
T1 construct: Abeta1-42 (Bachem, Switzerland) peptide films were re-suspended in 1% DMSO; purchased Bachem, Switzerland
The assay can be described thus: Assay 2 (filter trap): [3H]RefA competition and Ki on aggregated Abeta1-42 (selectivity tau versus Abeta). The class given is binding. Conditions: Table 24; fold increase of the Ki on aggregated Abeta1-42 versus PHF. The protocol:
Recombinant human full-length Tau441 (flTau) was expressed in bacteria and purified in the laboratory of Professor Hilal Lashuel (EPFL, Switzerland). A solution of 8 μM (400 μg/mL) flTau in PBS, 10 μM DTT and 5 μM heparin (all from Sigma-Aldrich) was gently mixed (cradled) for 3 days at 37° C. Cradled flTau aggregates were used at a final concentration of 20 μg/mL in all binding assays. Abeta1-42 (Bachem, Switzerland) peptide films were re-suspended in 1% DMSO and diluted in PBS to a 33 μM (150 μg/mL) suspension that was sonicated until complete dissolution. Aggregation process was done at 37° C. for 24 hours. Aggregated Abeta1-42 was used at a concentration of 20 μg/mL in all binding assays.
AD brain-enriched PHF diluted 1/80 were incubated in the presence of [^3H]RefA at 10 nM and the example compounds of this invention at 2.5 μM (250× excess), for 45 minutes at 37° C. Samples were then analyzed by on GF/B filter plates as described above (in the section “[^3H]RefA radio-binding assay and determination of the dissociation constant (Kd)). Non-specific signal was determined again with an excess of un-labeled RefA and specific binding calculated by subtracting the non-specific signal from the total signal. […]

T1 sequence (P05067 672-713 limits assumed): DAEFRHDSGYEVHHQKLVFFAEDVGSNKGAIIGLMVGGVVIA

Take `Cn1c2ccncc2c2ccc(Nc3cccc(OCCF)c3)nc21` [Example 8]: the “Fold increase on Abeta1-42 vs PHF” value was 0.5.
As to `Cn1c2ccncc2c2ccc(Nc3ccc(OC(F)F)cc3)nc21` [Example 9], the “Fold increase on Abeta1-42 vs PHF” value was determined as 200.
